Measured values reported in ChEMBL document CHEMBL1201862, “PubChem BioAssay data set” (2004).
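Exposure lasted 48 hours, with cells grown in 96-well plates and compounds tested at five concentrations. Here, GI50 denotes the concentration required for 50% inhibition of growth.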 Active and inactive are the calls of the source. Rule as the data show it: active = GI50 up to about 1.1 µM and inactive = higher.

Tests used:
Test in all cases: NCI tumour cell line growth inhibition, 48 h
A498 = test system: A498
PC-3 = test system: PC-3
NCI-H522 = test system: NCI-H522
UO-31 = test system: UO-31
TK-10 = test system: TK-10
NCI-H226 = test system: NCI-H226
U-251 = test system: U-251
SK-MEL-2 = test system: SK-MEL-2
MDA-MB-231 = test system: MDA-MB-231
A549 = test system: A549
SF-268 = test system: SF-268
786-0 = test system: 786-0
MCF7 = test system: MCF7
NCI/ADR-RES = test system: NCI/ADR-RES
SNB-19 = test system: SNB-19
SK-MEL-5 = test system: SK-MEL-5
SK-OV-3 = test system: SK-OV-3
HL-60 = test system: HL-60
RXF 393 = test system: RXF 393

CCOc1ccc(N/C(=C(/C(Cl)=C(/Cl)Nc2ccccc2)[N+](=O)[O-])n2nnc3ccccc32)cc1
GI50 (A498): > 100 µM (inactive)
GI50 (PC-3): 23.2 µM (inactive)
GI50 (NCI-H522): 14 µM (inactive)
GI50 (UO-31): 17.1 µM (inactive)
GI50 (TK-10): 32.9 µM (inactive)
GI50 (NCI-H226): 40.1 µM (inactive)
GI50 (U-251): 18.2 µM (inactive)
GI50 (SK-MEL-2): 26.3 µM (inactive)
GI50 (MDA-MB-231): 24.5 µM (inactive)
GI50 (A549): 29.1 µM (inactive)
GI50 (SF-268): 18.6 µM (inactive)
GI50 (786-0): 22.2 µM (inactive)
GI50 (MCF7): 35.7 µM (inactive)
GI50 (NCI/ADR-RES): 20 µM (inactive)
GI50 (SNB-19): 30.1 µM (inactive)
GI50 (SK-MEL-5): 17.7 µM (inactive)
GI50 (SK-OV-3): 40 µM (inactive)

C/C(=C\[Si](C)(C)c1ccco1)C(C)(O)[C@H](C)O (some centres undefined)
GI50 (A498): 76 µM (inactive)
GI50 (PC-3): 38.9 µM (inactive)
GI50 (NCI-H522): 30.3 µM (inactive)
GI50 (HL-60): 26.9 µM (inactive)
GI50 (TK-10): 97.3 µM (inactive)
GI50 (NCI-H226): 64.9 µM (inactive)
GI50 (U-251): > 100 µM (inactive)
GI50 (SK-MEL-2): 91.6 µM (inactive)
GI50 (MDA-MB-231): > 100 µM (inactive)
GI50 (A549): 48.2 µM (inactive)
GI50 (SF-268): 90.2 µM (inactive)
GI50 (786-0): 44.9 µM (inactive)
GI50 (MCF7): 32.9 µM (inactive)
GI50 (NCI/ADR-RES): 43.7 µM (inactive)
GI50 (SNB-19): > 100 µM (inactive)
GI50 (SK-MEL-5): 40.7 µM (inactive)
GI50 (SK-OV-3): > 100 µM (inactive)

CC1=CC2(C)C=C[C@@H]1C(=O)[C@@]1(C)CC[C@@](O)(C(C)C)[C@H]1CC2
GI50 (A498): 28.6 µM (inactive)
GI50 (RXF 393): 19.4 µM (inactive)
GI50 (PC-3): 24.2 µM (inactive)
GI50 (UO-31): 17.6 µM (inactive)
GI50 (TK-10): 36.6 µM (inactive)
GI50 (NCI-H226): 23.4 µM (inactive)
GI50 (U-251): 18.1 µM (inactive)
GI50 (SK-MEL-2): 33.3 µM (inactive)
GI50 (MDA-MB-231): 17.5 µM (inactive)
GI50 (A549): 34.6 µM (inactive)
GI50 (SF-268): 23.8 µM (inactive)
GI50 (786-0): 17.3 µM (inactive)
GI50 (MCF7): 28.4 µM (inactive)
GI50 (NCI/ADR-RES): 20.2 µM (inactive)
GI50 (SNB-19): 23.6 µM (inactive)
GI50 (SK-MEL-5): 19.7 µM (inactive)
GI50 (SK-OV-3): 23.6 µM (inactive)

COc1ccc2c3c1O[C@H]1[C@@H](O)CC[C@@]4(O)[C@@H](C2)N(C)CC[C@]314
GI50 (A498): > 100 µM (inactive)
GI50 (PC-3): > 100 µM (inactive)
GI50 (NCI-H522): > 100 µM (inactive)
GI50 (HL-60): 2.93 µM (inactive)
GI50 (UO-31): > 100 µM (inactive)
GI50 (TK-10): > 100 µM (inactive)
GI50 (NCI-H226): > 100 µM (inactive)
GI50 (U-251): > 100 µM (inactive)
GI50 (SK-MEL-2): > 100 µM (inactive)
GI50 (MDA-MB-231): > 100 µM (inactive)
GI50 (A549): > 100 µM (inactive)
GI50 (SF-268): > 100 µM (inactive)
GI50 (786-0): > 100 µM (inactive)
GI50 (MCF7): > 100 µM (inactive)
GI50 (NCI/ADR-RES): > 100 µM (inactive)
GI50 (SNB-19): > 100 µM (inactive)
GI50 (SK-MEL-5): > 100 µM (inactive)
GI50 (SK-OV-3): > 100 µM (inactive)

C/C(=N\Nc1nc2ccccc2s1)c1cc2ccccc2cn1
GI50 (A498): 10.9 µM (inactive)
GI50 (RXF 393): 3.61 µM (inactive)
GI50 (PC-3): 5.42 µM (inactive)
GI50 (NCI-H522): 4.78 µM (inactive)
GI50 (UO-31): 1.48 µM (inactive)
GI50 (TK-10): 3.94 µM (inactive)
GI50 (NCI-H226): 1.73 µM (inactive)
GI50 (U-251): 4.68 µM (inactive)
GI50 (SK-MEL-2): 6.79 µM (inactive)
GI50 (MDA-MB-231): 4.88 µM (inactive)
GI50 (A549): 3.66 µM (inactive)
GI50 (SF-268): 7.43 µM (inactive)
GI50 (786-0): 2.52 µM (inactive)
GI50 (MCF7): 0.27 µM (active)
GI50 (NCI/ADR-RES): 3.25 µM (inactive)
GI50 (SNB-19): 13.6 µM (inactive)
GI50 (SK-MEL-5): 3.18 µM (inactive)
GI50 (SK-OV-3): 3.15 µM (inactive)

CC(NC(=O)C(N)CC(=O)O)NC(=O)N1CCOCC1 (centres undefined)
GI50 (A498): > 100 µM (inactive)
GI50 (RXF 393): > 100 µM (inactive)
GI50 (PC-3): > 100 µM (inactive)
GI50 (NCI-H522): > 100 µM (inactive)
GI50 (UO-31): > 100 µM (inactive)
GI50 (TK-10): > 100 µM (inactive)
GI50 (NCI-H226): > 100 µM (inactive)
GI50 (U-251): > 100 µM (inactive)
GI50 (SK-MEL-2): > 100 µM (inactive)
GI50 (MDA-MB-231): > 100 µM (inactive)
GI50 (A549): > 100 µM (inactive)
GI50 (SF-268): > 100 µM (inactive)
GI50 (786-0): > 100 µM (inactive)
GI50 (MCF7): > 100 µM (inactive)
GI50 (NCI/ADR-RES): > 100 µM (inactive)
GI50 (SNB-19): > 100 µM (inactive)
GI50 (SK-MEL-5): > 100 µM (inactive)
GI50 (SK-OV-3): > 100 µM (inactive)

Cc1ccc(S(=O)(=O)NC(=O)NC(CCC(N)=O)C(=O)O)cc1 (centres undefined)
GI50 (RXF 393): > 100 µM (inactive)
GI50 (PC-3): > 100 µM (inactive)
GI50 (NCI-H522): > 100 µM (inactive)
GI50 (HL-60): 69.5 µM (inactive)
GI50 (UO-31): > 100 µM (inactive)
GI50 (TK-10): > 100 µM (inactive)
GI50 (U-251): > 100 µM (inactive)
GI50 (SK-MEL-2): > 100 µM (inactive)
GI50 (MDA-MB-231): > 100 µM (inactive)
GI50 (A549): > 100 µM (inactive)
GI50 (SF-268): > 100 µM (inactive)
GI50 (786-0): > 100 µM (inactive)
GI50 (MCF7): > 100 µM (inactive)
GI50 (NCI/ADR-RES): > 100 µM (inactive)
GI50 (SNB-19): > 100 µM (inactive)
GI50 (SK-MEL-5): > 100 µM (inactive)
GI50 (SK-OV-3): > 100 µM (inactive)

C#C[C@]1(O)CC[C@H]2[C@@H]3CCC4=C/C(=N/OCCN(C)C)CC[C@]4(C)[C@H]3CC[C@@]21C
GI50 (A498): 41.4 µM (inactive)
GI50 (PC-3): 27.7 µM (inactive)
GI50 (NCI-H522): 16.3 µM (inactive)
GI50 (UO-31): 62.5 µM (inactive)
GI50 (TK-10): > 100 µM (inactive)
GI50 (NCI-H226): 27.3 µM (inactive)
GI50 (U-251): 33.6 µM (inactive)
GI50 (SK-MEL-2): 31.7 µM (inactive)
GI50 (MDA-MB-231): 39.9 µM (inactive)
GI50 (A549): 31.7 µM (inactive)
GI50 (SF-268): 49.5 µM (inactive)
GI50 (786-0): 29.2 µM (inactive)
GI50 (MCF7): 25.1 µM (inactive)
GI50 (NCI/ADR-RES): 41.7 µM (inactive)
GI50 (SNB-19): 27.9 µM (inactive)
GI50 (SK-MEL-5): 13.2 µM (inactive)
GI50 (SK-OV-3): 40.1 µM (inactive)
